{
  "source": "patent US6894053B2",
  "about": "“Serotonergic agents with long-acting in vivo effects” (Wyeth, priority 2001, dated 2005)",
  "key": {"5-HT1A [1]": {"target": "T1, 5-HT1A (Rattus norvegicus, UniProt P19327)", "T1 construct": "from tissue; host or cells: rat brain (cortex and hippocampus membranes in the ex vivo assay; whole animal in the behavioural model)", "T1 sequence (P19327 1-422)": "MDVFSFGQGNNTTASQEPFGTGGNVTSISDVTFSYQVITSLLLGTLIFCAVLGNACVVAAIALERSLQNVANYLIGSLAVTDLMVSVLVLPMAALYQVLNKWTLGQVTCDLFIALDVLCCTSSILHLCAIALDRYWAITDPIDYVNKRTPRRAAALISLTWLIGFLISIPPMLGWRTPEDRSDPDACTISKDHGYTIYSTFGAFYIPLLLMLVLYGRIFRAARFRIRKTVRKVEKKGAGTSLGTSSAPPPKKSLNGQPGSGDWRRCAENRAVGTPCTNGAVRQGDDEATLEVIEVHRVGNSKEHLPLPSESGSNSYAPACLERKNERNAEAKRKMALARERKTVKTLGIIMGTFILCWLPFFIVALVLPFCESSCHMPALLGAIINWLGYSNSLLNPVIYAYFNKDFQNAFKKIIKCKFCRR", "assay": "Ex vivo binding of [3H]-WAY-100635: 5-HT1A receptor occupancy in rat brain", "details": "for [3H]-WAY-100635 remaining in membrane preparation: 3 mg/kg ip", "procedure": "The serotonergic 5-HT1A receptor occupancy in vivo of the compounds of this invention was determined using ex vivo binding techniques. Rats were injected with a 3 mg/kg ip dose of Example 1 or vehicle and then sacrificed after 1, 24, 72, 168, and 336 hours. […] Tissue was prepared by homogenization and washed once with buffer. Serotonergic 5-HT1A receptors were measured in the membrane preparation using the standard 5-HT1A receptor antagonist [^3H]-WAY-100635 (85 Ci/mmol). Specific binding was determined in the presence of […] methiothepin. The ability of the test compounds to displace [^3H]-WAY-100635 from the 5-HT1A receptor was then determined and expressed as the fmol/mg protein of [^3H]-WAY-100635 remaining in the membrane preparation after treatment with the test compound."}, "5-HT1A [2]": {"target": "T1, 5-HT1A", "assay": "Fixed Responding Model (fixed-ratio 30 food schedule), antagonism of 8-OH-DPAT", "format": "in vivo", "procedure": "The ability of the compounds of this invention to function in vivo as 5-HT1A antagonists was assessed in rats using a Fixed Responding Model (Blackman, D., in, “Operant Conditioning: An Experimental Analysis of Behavior”, J. Butcher, Ed., Methuen and Co., Ltd., London). In this model rats are trained to respond (lever pressing) under a fixed-ratio 30 schedule of food presentation in order to receive a food pellet reinforcer. […] 5-HT1A antagonist activity is assessed by determining the test compound's ability to antagonize this decrease in response rate induced by administration of the agonist."}},
  "note": "Counter-ions that a name gives are not always drawn.",
  "data": [
    {"smiles": "COc1ccccc1N1CCN(C[C@@H](CC2CCCCC2)NC(=O)C2(C)CCCCC2)CC1", "note": "(as salt: hydrochloride) (hydrate or solvate) [Example 1, 1-Methyl-cyclohexanecarboxylic acid {(1R)-1-cyclohexylmethyl-2-[4-(2-methoxyphenyl)-piperazin-1-yl]-ethyl}-amide hydrochloride hydrate]", "values": [
      {"measurement": "melting point", "result": "119 to 121", "unit": "°C"}
    ]},
    {"smiles": "COc1ccccc1N1CCN(C[C@@H](CC2CCCCC2)NC(=O)C2(C)CCCCC2)CC1", "note": "[Example 1, 1-Methyl-cyclohexanecarboxylic acid {(1R)-1-cyclohexylmethyl-2-[4-(2-methoxyphenyl)-piperazin-1-yl]-ethyl}-amide hydrochloride hydrate]", "values": [
      {"measurement": "[3H]-WAY-100635 remaining in membrane preparation", "setting": "5-HT1A [1]; 1 hour, cortex", "result": "4.0 ± 0.1", "unit": "fmol/mg protein"},
      {"measurement": "[3H]-WAY-100635 remaining in membrane preparation", "setting": "5-HT1A [1]; 1 hour, striat.", "result": "6.0 ± 0.3", "unit": "fmol/mg protein"},
      {"measurement": "[3H]-WAY-100635 remaining in membrane preparation", "setting": "5-HT1A [1]; 24 hour, cortex", "result": "8.0 ± 0.6", "unit": "fmol/mg protein"},
      {"measurement": "[3H]-WAY-100635 remaining in membrane preparation", "setting": "5-HT1A [1]; 24 hour, striat.", "result": "12.0 ± 2.7", "unit": "fmol/mg protein"},
      {"measurement": "[3H]-WAY-100635 remaining in membrane preparation", "setting": "5-HT1A [1]; 72 hours, cortex", "result": "9.0 ± 0.6", "unit": "fmol/mg protein"},
      {"measurement": "[3H]-WAY-100635 remaining in membrane preparation", "setting": "5-HT1A [1]; 72 hours, striat.", "result": "14.0 ± 2.3", "unit": "fmol/mg protein"},
      {"measurement": "[3H]-WAY-100635 remaining in membrane preparation", "setting": "5-HT1A [1]; 7 days, cortex", "result": "7.0 ± 0.3", "unit": "fmol/mg protein"},
      {"measurement": "[3H]-WAY-100635 remaining in membrane preparation", "setting": "5-HT1A [1]; 7 days, striat.", "result": "15.0 ± 1.7", "unit": "fmol/mg protein"},
      {"measurement": "[3H]-WAY-100635 remaining in membrane preparation", "setting": "5-HT1A [1]; 14 days, cortex", "result": "11.0 ± 0.3", "unit": "fmol/mg protein"},
      {"measurement": "[3H]-WAY-100635 remaining in membrane preparation", "setting": "5-HT1A [1]; 14 days, striat.", "result": "26.0 ± 0.6", "unit": "fmol/mg protein"},
      {"measurement": "Duration of significant inhibition of WAY-100635 binding after a single administration", "setting": "5-HT1A [1]; single administration, ex vivo binding", "result": "up to 14 days"},
      {"measurement": "Reversal of the effect of 8-OH-DPAT on response rate", "setting": "5-HT1A [2]; 3 mg/kg sc vs 8-OH-DPAT 1 mg/kg sc", "result": "completely reverses"},
      {"measurement": "Response Rate", "setting": "5-HT1A [2]; 8-OH-DPAT (1 mg/kg sc) + test compound 3 mg/kg sc", "result": "2.4 ± 0.3", "unit": "responses/second"},
      {"measurement": "Duration of significant inhibition of the 8-OH-DPAT-induced decrease in responding", "setting": "5-HT1A [2]; single dose 3 mg/kg sc, daily 8-OH-DPAT 1 mg/kg sc", "result": "up to 17 days"},
      {"measurement": "Response Rate", "setting": "5-HT1A [2]; single dose 3 mg/kg sc, daily 8-OH-DPAT 1 mg/kg sc, Day 1", "result": "2.4 ± 0.3", "unit": "responses/second"},
      {"measurement": "Response Rate", "setting": "5-HT1A [2]; single dose 3 mg/kg sc, daily 8-OH-DPAT 1 mg/kg sc, Day 4", "result": "2.1 ± 0.3", "unit": "responses/second"},
      {"measurement": "Response Rate", "setting": "5-HT1A [2]; single dose 3 mg/kg sc, daily 8-OH-DPAT 1 mg/kg sc, Day 7", "result": "2.0 ± 0.3", "unit": "responses/second"},
      {"measurement": "Response Rate", "setting": "5-HT1A [2]; single dose 3 mg/kg sc, daily 8-OH-DPAT 1 mg/kg sc, Day 11", "result": "1.8 ± 0.2", "unit": "responses/second"},
      {"measurement": "Response Rate", "setting": "5-HT1A [2]; single dose 3 mg/kg sc, daily 8-OH-DPAT 1 mg/kg sc, Day 14", "result": "1.7 ± 0.3", "unit": "responses/second"},
      {"measurement": "Response Rate", "setting": "5-HT1A [2]; single dose 3 mg/kg sc, daily 8-OH-DPAT 1 mg/kg sc, Day 17", "result": "1.0 ± 0.2", "unit": "responses/second"},
      {"measurement": "Response Rate", "setting": "5-HT1A [2]; single dose 3 mg/kg sc, daily 8-OH-DPAT 1 mg/kg sc, Day 21", "result": "0.7 ± 0.2", "unit": "responses/second"}
    ]}
  ]
}
